Values of other authors as cited in patent publication US6642243B1, “Migraine medicine and method for treating same” (priority 1999, dated 2003).

Experiments:
[1] = test system: individuals who take these agents; settings: treatment and prophylaxis of migraines
[2] = test system: cerebral blood flow; settings: in humans
[3] = test system: migraine patients; settings: pretreatment with 2 mg/kg; p<0.05

CC[C@@H](CO)NC(=O)[C@@H]1C=C2c3cccc4c3c(cn4C)C[C@H]2N(C)C1 [methysergide]
significant toxicity, share of the individuals who take these agents [1]: ~40%

Cn1c(=O)c2c(ncn2C)n(C)c1=O [Caffeine, caffeine]
cerebral blood flow [2]: reduce cerebral blood flow

CN[C@@H](C)[C@@H](O)c1ccccc1 [Pseudoephedrine, pseudoephedrine]
effects of increased postural hypotension seen in migraine patients versus normal patients [3]: abolished
effects of lower blood pressure after sustained handgrip seen in migraine patients versus normal patients [3]: abolished

C[C@@H](CO)NC(=O)[C@@H]1C=C2c3cccc4[nH]cc(c34)C[C@H]2N(C)C1 [ergonovine]
significant toxicity, share of the individuals who take these agents [1]: ~40%
